Experimental findings from patent US20170247429A1, “BLOOD-BRAIN BARRIER DISRUPTING AGENTS AND USES THEREOF” (TEL HASHOMER MEDICAL RESEARCH INFRASTRUCTURE AND SERVICES …, priority 2014, published 2017) are described below.

The test system of data set [1] is intracranial CNS-1 glioma tumors. The data set is described as follows: Survival of glioma-bearing rats (Kaplan-Meier). In kind it is in vivo, Lewis male rats. Conditions: rats bearing intracranial CNS-1 glioma; monitored up to 60 days. The method, then:
The three rats groups were monitored for survival. Rats were monitored daily and sacrificed when lost>20% of body weight and/or were unable to eat or drink. Rats were monitored up to 60 days after the tumor cell implantation. The Kaplan-Meier survival curves were analyzed according to the Wilcoxon test.

In data set [2] the test system is brain-glioma (CNS-1) tumor. The data set is described as follows: Tumor growth in glioma rat model (T1-weighted MRI tumor volumes). In kind it is in vivo, Lewis male rats. The following applies: MTX 6 mg/kg IP, EA-HSA 0.5 mg/ml CED where combined. The method, then: Intracranial inoculation of the tumor was performed as follows: a midline scalp incision was carried out under general anesthesia in order to locate the bregma. A burr hole (1 mm) was drilled on the right side, 3 mm anterior and 2 mm lateral to the bregma. A 33-gauge needle attached to a 1,000 μl syringe was placed stereotactically into the striatum to a depth of 5 mm through which a pellet of 2×10^5 CNS-1 rat glioma cells precipitated in 10 μl PBS buffer was infused into the striatum. The infusion was performed with a BASI syringe pump at a rate of 2 μl/min over a period of 5 min. The burr hole was sealed with bone wax to avoid the tumors from growing out of the skull. The intracranial inoculation of the tumor is designated Day-4 in Table 2.
EA-HSA was administered by CED into the rat brains under full anesthesia. For CED, a midline scalp incision was made under anesthesia to identify the bregma. Then, a burr hole (1 mm) was made in the right region of the skull, 3 mm anterior and 2 mm lateral to the bregma. […]
The volume (in mm^3) of BBB disruption and the increase in tumor volume were calculated from T1-weighted MR images. […] The number of pixels in the ROIs was then counted and multiplied by the volume of a single pixel (voxel). Tumor growth rates were calculated by dividing the tumor volumes at days 2 and 7 post treatment with the baseline tumor volumes (measured at day 0).

For data set [3] the following is noted: rat, in vivo, ip, 6 mg/kg. The method, then: Additionally, MTX was administered intraperitoneally to naïve rats (n=26) at a dosage of 6 mg/kg body weight on days 0, 2 and 4. […] The combined administration, MTX even at three times of its maximal tolerated dose, with folinic acid prevented MTX toxicity.

In data set [1], `CN(Cc1cnc2nc(N)nc(N)c2n1)c1ccc(C(=O)N[C@@H](CCC(=O)O)C(=O)O)cc1` [MTX, Methotrexate] showed a median survival time of 12 days. The “tumor volume normalized to day 0 (tumor growth rate)” value in data set [2] (day 2 post treatment) and in data set [2] (day 7 post treatment) was 2.2±0.4 throughout. Further, in data set [3], the “toxicity of MTX regimen” value was “symptomatic toxicity”.
